Laboratory results as given in article PMC9782539, “Synthesis, Characterization and Biological Evaluation of Benzothiazole–Isoquinoline Derivative” (Molecules, 2022).

Assays:
MAO–B = target: T1, MAO–B (Rattus norvegicus, UniProt P19643); experiment: MAO–B inhibitory activity (enzyme pre-incubated with chlorgiline); format: biochemical
T1 construct: the obtained SD rat liver mitochondrial concentrate was the experimental monoamine oxidase stock solution; from tissue; host or cells: male SD rat liver mitochondria
T1 sequence (P19643 1-520): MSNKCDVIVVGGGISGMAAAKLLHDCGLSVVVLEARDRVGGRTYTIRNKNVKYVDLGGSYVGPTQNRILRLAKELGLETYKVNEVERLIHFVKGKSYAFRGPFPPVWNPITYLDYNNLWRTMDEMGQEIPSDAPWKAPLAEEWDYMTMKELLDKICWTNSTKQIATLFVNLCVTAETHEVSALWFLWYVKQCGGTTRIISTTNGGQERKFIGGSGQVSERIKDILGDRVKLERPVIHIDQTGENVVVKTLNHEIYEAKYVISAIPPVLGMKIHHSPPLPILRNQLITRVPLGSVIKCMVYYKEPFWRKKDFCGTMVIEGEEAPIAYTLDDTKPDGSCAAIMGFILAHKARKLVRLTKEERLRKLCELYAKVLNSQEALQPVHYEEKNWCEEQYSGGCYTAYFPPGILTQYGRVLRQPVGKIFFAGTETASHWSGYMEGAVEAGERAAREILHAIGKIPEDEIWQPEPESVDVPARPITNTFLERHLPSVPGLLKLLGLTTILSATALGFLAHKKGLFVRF
Method: (§1) Male SD rats were sacrificed by decapitation, operated on ice, their livers were removed, and the liver surface was washed with precooled phosphate buffer. The liver was cut into pieces, and after washing (using PBS), 20 mL of 0.3 M sucrose buffer was added for homogenization. After fully homogenized, it was balanced by a tray balance. Low–temperature differential centrifugation was performed, and the obtained SD rat liver mitochondrial concentrate was the experimental monoamine oxidase stock solution, and was stored in a −80 °C refrigerator.
(§2) Added 25 µL of enzyme dilution solution and 25 µL of test derivatives (control group plus rasagiline, blank group plus 10% DMSO) to 96–well plate, incubated at 37 °C for 1 h, then 120 µL of substrate was added, 80 µL of chromogenic solution was added, incubated at 37 °C for 30 min, and its absorbance measured at 490 nm. In addition, in order to exclude the influence of protein, a protein control group was established, only the enzyme dilution was added, and the rest were replaced with PBS, and the absorbance value was detected at a wavelength of 490 nm. The inhibition rate of each concentration was substituted into the calculation software GraphPad Prism 8 to calculate the IC50 value.
(§3) The inhibition rate of each concentration was substituted into the calculation software GraphPad Prism 8 to calculate the IC50 value.

MAO = MAO inhibitory activity (Holts method, rat liver mitochondrial enzyme); format: biochemical
Method: as §1, §2

MAO–A = target: T2, MAO–A (Rattus norvegicus, UniProt P21396); experiment: MAO–A inhibitory activity (enzyme pre-incubated with pargyline); format: biochemical
T2 construct: the obtained SD rat liver mitochondrial concentrate was the experimental monoamine oxidase stock solution; from tissue; host or cells: male SD rat liver mitochondria
T2 sequence (P21396 1-526): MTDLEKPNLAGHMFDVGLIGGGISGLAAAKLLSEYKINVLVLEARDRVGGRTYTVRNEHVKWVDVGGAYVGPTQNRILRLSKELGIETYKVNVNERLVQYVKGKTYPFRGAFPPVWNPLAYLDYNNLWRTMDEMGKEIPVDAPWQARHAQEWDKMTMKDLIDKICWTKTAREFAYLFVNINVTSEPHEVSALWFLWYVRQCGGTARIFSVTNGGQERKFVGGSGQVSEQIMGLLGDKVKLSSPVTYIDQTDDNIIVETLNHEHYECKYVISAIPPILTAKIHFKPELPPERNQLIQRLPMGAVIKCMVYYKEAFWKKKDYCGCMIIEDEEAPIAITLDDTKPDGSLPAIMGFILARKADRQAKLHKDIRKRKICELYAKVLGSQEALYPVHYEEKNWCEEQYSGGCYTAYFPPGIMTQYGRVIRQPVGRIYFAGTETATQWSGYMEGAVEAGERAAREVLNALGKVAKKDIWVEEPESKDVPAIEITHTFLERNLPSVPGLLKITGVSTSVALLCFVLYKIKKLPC
Method: as §1, §2, §3

ICR male mice = experiment: Forced swimming test (FST); format: in vivo; settings: i.p., 30 mg/kg; for Duration of Immobility: 30 min after administration, mean ± SEM (n = 8); for DID (%) percentage decrease in immobility duration: vs control
Method: Pharmacological experiments of antidepressant activity used FST in mice, fluoxetine hydrochloride was used as a positive control, and the vehicle solvent PFG–400 was used as a blank control. The experiment used ICR male mice (20 ± 2 g). Six benzothiazole–quinoline derivatives were dissolved in polyethylene glycol–400, and 30 min after administration (i.p., 30 mg/kg), the mice were each placed in a glass cylinder, recording the time of immobility. Duration of immobility outcomes is expressed as mean ± SEM. The t-test was used to make comparisons between groups.

BuChE = BuChE (Homo sapiens, UniProt P06276); experiment: biochemical; format: biochemical
BuChE, sequence (P06276 29-602): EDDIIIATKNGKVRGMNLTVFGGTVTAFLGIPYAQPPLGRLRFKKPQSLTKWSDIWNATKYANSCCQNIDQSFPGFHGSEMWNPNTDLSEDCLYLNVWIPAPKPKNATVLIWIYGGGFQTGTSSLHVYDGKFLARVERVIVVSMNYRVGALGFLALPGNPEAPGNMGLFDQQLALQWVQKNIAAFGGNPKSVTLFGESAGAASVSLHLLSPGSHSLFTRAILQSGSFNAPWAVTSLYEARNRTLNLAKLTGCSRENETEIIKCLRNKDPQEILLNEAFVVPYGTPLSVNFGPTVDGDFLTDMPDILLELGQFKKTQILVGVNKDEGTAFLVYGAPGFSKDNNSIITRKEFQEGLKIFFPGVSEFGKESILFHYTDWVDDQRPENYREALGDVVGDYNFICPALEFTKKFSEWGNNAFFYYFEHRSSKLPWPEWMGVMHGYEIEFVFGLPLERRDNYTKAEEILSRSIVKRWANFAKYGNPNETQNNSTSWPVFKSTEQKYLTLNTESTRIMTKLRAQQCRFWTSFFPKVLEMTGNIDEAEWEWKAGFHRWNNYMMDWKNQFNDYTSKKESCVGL
Method: (§4) Each concentration was tested three times in parallel, and 96 empty plates were taken, and 20 µL of the test sample or positive drug (10% DMSO was added to the blank control), 40 µL of AChE or BuChE (0.2 U/mL) and 100 µL of DTNB (0.001 mol/L) were added in turn, mixed well and incubated in a constant temperature water bath at 37 °C for 15 min.

AChE = AChE (Homo sapiens, UniProt P22303); experiment: biochemical; format: biochemical
AChE, sequence (P22303 32-614): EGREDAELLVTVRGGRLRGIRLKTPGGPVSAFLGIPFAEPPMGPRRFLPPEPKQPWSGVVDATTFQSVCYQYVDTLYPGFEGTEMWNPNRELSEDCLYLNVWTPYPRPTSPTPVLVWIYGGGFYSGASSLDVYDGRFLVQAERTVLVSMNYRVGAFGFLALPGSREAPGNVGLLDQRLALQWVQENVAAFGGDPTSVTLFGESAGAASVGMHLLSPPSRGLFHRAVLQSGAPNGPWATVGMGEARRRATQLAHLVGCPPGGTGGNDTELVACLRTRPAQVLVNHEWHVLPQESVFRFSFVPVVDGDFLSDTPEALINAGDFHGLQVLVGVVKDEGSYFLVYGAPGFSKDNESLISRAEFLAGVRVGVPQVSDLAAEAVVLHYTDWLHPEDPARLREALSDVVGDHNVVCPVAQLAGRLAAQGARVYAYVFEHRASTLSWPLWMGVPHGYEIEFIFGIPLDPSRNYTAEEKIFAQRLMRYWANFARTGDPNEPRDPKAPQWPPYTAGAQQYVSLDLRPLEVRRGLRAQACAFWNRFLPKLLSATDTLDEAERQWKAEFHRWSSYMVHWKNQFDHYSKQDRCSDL
Method: as §4

Cytotoxicity, MTT method = format: cell-based; settings: mouse, L929 cells, 0–100 μM, read-out: cell viability (MTT)
Method: L929 (Shanghai Cell Bank, Chinese Academy of Sciences) cells were cultured in 10% fetal bovine serum: penicillin–streptomycin solution: MEM mixed medium with serum–free medium (10:1:90), and subcultured in a 5% carbon dioxide cell incubator at 37 °C, and the medium changed every other day.
In this experiment, L929 cells in the logarithmic growth phase were selected, and the cell density was adjusted to 2 × 10^4 cells per well. The cells were seeded in 96–well plates, and the 96–well plates seeded with cells were cultured in a 37 °C 5% carbon dioxide cell incubator. After 24 h, different concentrations of the test compound medium (6.5, 12.5, 25, 50, 100 μM) were added, and the blank group was added with drug–free medium, shaken gently, and placed at 37 °C 5%. The cells were cultured in a carbon dioxide cell incubator for 24 h, and each concentration was replicated 6 times. After 24 h, 20 μL of […] MTT solution (prepared in PBS with pH = 7.6) was added in the dark, and cultured in the cell incubator for another 4 h. After 4 h, the 96–well plate was taken out and the original medium was discarded. Added 160 μL DMSO, put it on a shaker and mixed well for about 10 min, used a microplate reader to measure its absorbance at 490 nm, recorded the results and analyzed.

Row | Structure (SMILES) | Inhibition Rate (%) MAO–B (MAO–B) [%] | IC50 (MAO) [µM] | Inhibition Rate of MAO (%) (MAO) | Inhibition Rate (%) MAO–A (MAO–A) [%] | Duration of Immobility (ICR male mice) [s] | DID (%) percentage decrease in immobility duration (ICR male mice) [%] | IC50 (BuChE) [µM] | Inhibition Rate (%) BuChE (BuChE) [%] | IC50 (AChE) [µM] | Inhibition Rate (%) AChE (AChE) [%] | viability at 24 h (Cytotoxicity, MTT method) [%] | IC50 (MAO–B) [µM] | DID (%) percentage decrease in immobility duration (ICR male mice; listed as fluoxetine) [%]
1 | C#CCN(C)Cc1ccccc1 [Pargyline, reference compound] | 93.47 | – | – | – | – | – | – | – | – | – | – | – | –
2 | Cc1ccc2nc(NC(=O)CN3CCc4ccccc4[C@H]3c3ccccc3)sc2c1 [Compound 4i, (R)–N–(6–methylbenzo[d]thiazol–2–yl)–2–(1–phenyl–3,4–dihydroisoquinolin–2(1H)–yl)acetamide] | 61.17 | 18.5 ± 1.69 | 26.46 | 2.51 | 83.8 ± 13.6 | 53.05 | 19.2 ± 2.72 | 47.68 | > 150 | 2.21 | > 90 | 16.5 ± 3.59 | –
3 | Cc1ccc2sc(NC(=O)CN3CCc4ccccc4[C@H]3c3ccccc3)nc2c1 [Compound 4h, (R)–N–(5–methylbenzo[d]thiazol–2–yl)–2–(1–phenyl–3,4–dihydroisoquinolin–2(1H)–yl)acetamide] | – | 76.4 ± 2.58 | 16.72 | – | – | – | 11.5 ± 3.22 | 37.44 | > 150 | 3.31 | – | – | –
4 | O=C(CN1CCc2ccccc2[C@H]1c1ccccc1)Nc1nc2cc(Br)ccc2s1 [Compound 4e, (R)–N–(5–bromobenzo[d]thiazol–2–yl)–2–(1–phenyl–3,4–dihydroisoquinolin–2(1H)–yl)acetamide] | – | 128.1 ± 1.27 | 9.29 | – | – | – | 18.3 ± 2.68 | 68.80 | > 150 | 4.97 | – | – | –
5 | O=C(CN1CCc2ccccc2[C@H]1c1ccccc1)Nc1nc2c(Cl)cccc2s1 [Compound 4a, (R)–N–(4–chlorobenzo[d]thiazol–2–yl)–2–(1–phenyl–3,4–dihydroisoquinolin–2(1H)–yl)acetamide] | – | > 150 | 14.93 | – | – | – | > 150 | 38.08 | > 150 | 6.08 | – | – | –
6 | O=C(CN1CCc2ccccc2[C@H]1c1ccccc1)Nc1nc2ccc([N+](=O)[O-])cc2s1 [Compound 4n, (R)–N–(6–nitrobenzo[d]thiazol–2–yl)–2–(1–phenyl–3,4–dihydroisoquinolin–2(1H)–yl)acetamide] | – | > 150 | 12.51 | – | – | – | 12.3 ± 3.76 | 20.31 | > 150 | 2.76 | – | – | –
7 | COc1ccc2sc(NC(=O)CN3CCc4ccccc4[C@H]3c3ccccc3)nc2c1 [Compound 4k, (R)–N–(5–methoxybenzo[d]thiazol–2–yl)–2–(1–phenyl–3,4–dihydroisoquinolin–2(1H)–yl)acetamide] | – | 65.5 ± 3.51 | 17.75 | – | – | – | 10.2 ± 2.91 | 57.92 | > 150 | 3.31 | – | – | –
8 | O=C(CN1CCc2ccccc2[C@H]1c1ccccc1)Nc1nc2c(Br)cc(Br)cc2s1 [Compound 4p, (R)–N–(4,6–dibromobenzo[d]thiazol–2–yl)–2–(1–phenyl–3,4–dihydroisoquinolin–2(1H)–yl)acetamide] | – | 59.3 ± 3.22 | 19.80 | – | – | – | 27.1 ± 1.73 | 43.84 | > 150 | 6.63 | – | – | –
9 | O=C(CN1CCc2ccccc2[C@H]1c1ccccc1)Nc1nc2c(Cl)cc(Cl)cc2s1 [Compound 4o, (R)–N–(4,6–dichlorobenzo[d]thiazol–2–yl)–2–(1–phenyl–3,4–dihydroisoquinolin–2(1H)–yl)acetamide] | – | 67.8 ± 1.26 | 10.19 | – | – | – | 21.8 ± 2.85 | 52.16 | > 150 | 3.87 | – | – | –
10 | COc1cccc2sc(NC(=O)CN3CCc4ccccc4[C@H]3c3ccccc3)nc12 [Compound 4j, (R)–N–(4–methoxybenzo[d]thiazol–2–yl)–2–(1–phenyl–3,4–dihydroisoquinolin–2(1H)–yl)acetamide] | – | > 150 | 5.70 | – | – | – | > 150 | 51.52 | > 150 | 12.71 | – | – | –
11 | O=C(CN1CCc2ccccc2[C@H]1c1ccccc1)Nc1nc2ccc(F)cc2s1 [Compound 4m, (R)–N–(6–fluorobenzo[d]thiazol–2–yl)–2–(1–phenyl–3,4–dihydroisoquinolin–2(1H)–yl)acetamide] | – | > 150 | 9.76 | – | – | – | 50.3 ± 1.68 | 22.33 | > 150 | 2.76 | – | – | –
12 | COc1ccc2nc(NC(=O)CN3CCc4ccccc4[C@H]3c3ccccc3)sc2c1 [Compound 4l, (R)–N–(6–methoxybenzo[d]thiazol–2–yl)–2–(1–phenyl–3,4–dihydroisoquinolin–2(1H)–yl)acetamide] | – | 76.3 ± 2.94 | 11.34 | – | – | – | 3.86 ± 0.82 | 41.92 | > 150 | 3.31 | – | – | –
13 | CNCCC(Oc1ccc(C(F)(F)F)cc1)c1ccccc1 (stereo not shown) [Fluoxetine, reference compound] | – | – | – | – | 31.7 ± 7.7 | 82.20 | – | – | – | – | – | – | 82.2
